We go through 20 compounds from ChEMBL document CHEMBL1152067, “Design and syntheses of 4-acylaminopyridine derivatives: Novel high affinity choline uptake enhancers I” (Bioorg Med Chem Lett, 1995).

Settings in all cases: Hippocampus
For assay [1], the target named is High-affinity choline transporter 1 (Rattus norvegicus) (UniProt Q9JMD7). The assay can be described thus: Effect on uptake amount of [3H]choline in the hippocampal synaptosomes of AF64A-treated rats at a concentration of 10e-7 M.
Chain of High-affinity choline transporter 1 (Rattus norvegicus) (Q9JMD7 whole entry, looked up): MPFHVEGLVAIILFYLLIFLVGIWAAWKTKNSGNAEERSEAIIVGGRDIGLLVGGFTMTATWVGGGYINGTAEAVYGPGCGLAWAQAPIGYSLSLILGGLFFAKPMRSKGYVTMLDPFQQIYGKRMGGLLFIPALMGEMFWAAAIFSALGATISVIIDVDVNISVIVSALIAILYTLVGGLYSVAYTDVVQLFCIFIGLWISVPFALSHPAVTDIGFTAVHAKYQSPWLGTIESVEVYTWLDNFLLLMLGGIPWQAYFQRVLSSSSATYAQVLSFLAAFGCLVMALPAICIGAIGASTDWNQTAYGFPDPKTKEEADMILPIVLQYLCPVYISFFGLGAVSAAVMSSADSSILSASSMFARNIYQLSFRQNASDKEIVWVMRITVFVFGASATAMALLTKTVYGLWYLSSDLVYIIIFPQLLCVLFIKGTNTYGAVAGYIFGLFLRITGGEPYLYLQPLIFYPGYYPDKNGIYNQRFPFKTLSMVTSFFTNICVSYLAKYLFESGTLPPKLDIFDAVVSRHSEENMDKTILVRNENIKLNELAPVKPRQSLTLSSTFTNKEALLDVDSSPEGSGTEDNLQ
Assay [2] shares this target. Description: Effect on uptake amount of [3H]choline in the hippocampal synaptosomes of AF64A-treated rats at a concentration of 10e-6 M.
Assay [3] has the same target. The assay can be described thus: Effect on uptake amount of [3H]choline in the hippocampal synaptosomes of AF64A-treated rats at a concentration of 10e-5 M.

The structures appear in SMILES notation.

In the case of `O=C(O)CNCC(=O)Nc1c2c(nc3ccccc13)CCCC2`, the HACU improvement in assay [1] is -4%; in assay [2] it was -2%; in assay [3], 27%.

In the case of `O=C(CN1CCCC1=O)Nc1c2c(nc3ccccc13)CCCC2`, the HACU improvement in assay [1] is 17%; in assay [2], 14%; in assay [3], 13%.

With `O=C(CN1CCCCC1=O)Nc1c2c(nc3ccccc13)CCCC2`, the HACU improvement in assay [1] was -3%; in assay [2] it was 2%; in assay [3] it was 5%.

With `CCCCCC(=O)Nc1c2c(nc3ccccc13)CCCC2`, the HACU improvement in assay [1] turned out to be 11%; in assay [2] it was 5%; in assay [3], 2%.

For the compound `O=C(CN1C(=O)CNC1=O)Nc1c2c(nc3ccccc13)CCCC2`, the HACU improvement in assay [1] was -5%; in assay [2] it was 0%; in assay [3], 16%.

On to `CC(=O)Nc1c2c(nc3ccccc13)CCCC2`, for which the HACU improvement is -12% in assay [1], -10% in assay [2] and -11% in assay [3].

`CC(C)CC(=O)Nc1c2c(nc3ccccc13)CCCC2`: the HACU improvement was 4% in assay [1], -22% in assay [2] and 0% in assay [3].

In the case of `CC1C(=O)NC(=O)N1CC(=O)Nc1c2c(nc3ccccc13)CCCC2` (stereo not given), the HACU improvement in assay [1] stood at 4%; in assay [2], 2%; in assay [3], 11%.

For the compound `CCCCC(=O)Nc1c2c(nc3ccccc13)CCCC2`, the results for the HACU improvement in assay [1], in assay [2] and in assay [3] were -2%, -1% and 18%, respectively.

Take `Nc1c2c(nc3ccccc13)CCCC2`: the HACU improvement in assay [1] is 8%; in assay [2], 8%; in assay [3], -13%.

As for `CN(C)CC(=O)Nc1c2c(nc3ccccc13)CCCC2`, the HACU improvement in assay [1] was 0%; in assay [2], -13%; in assay [3] it was -7%.

Take `O=C(CN1CCCC1)Nc1c2c(nc3ccccc13)CCCC2`: the figures for the HACU improvement in assay [1], in assay [2] and in assay [3] were 1%, -20% and -71%, respectively.

In the case of `O=C1CN(CC(=O)Nc2c3c(nc4ccccc24)CCCC3)C(=O)N1`, the HACU improvement worked out at 15% in assay [1], 11% in assay [2] and 10% in assay [3].

Take `CNCC(=O)Nc1c2c(nc3ccccc13)CCCC2`: the HACU improvement came to 8% in assay [1], 18% in assay [2] and 21% in assay [3].

Turning to `CC(NCC(=O)Nc1c2c(nc3ccccc13)CCCC2)C(=O)O` (stereo not given), the values for the HACU improvement in assay [1], in assay [2] and in assay [3] were -7%, 6% and 13%, respectively.

For `CCCC(=O)Nc1c2c(nc3ccccc13)CCCC2`, the HACU improvement in assay [1] was 13%; in assay [2] it was 24%; in assay [3] it was 28%.

Take `O=C(CN1CCNC1=O)Nc1c2c(nc3ccccc13)CCCC2`: the figures for the HACU improvement in assay [1], in assay [2] and in assay [3] were 6%, 1% and 25%, respectively.

For the compound `O=C(Cn1ccnc1)Nc1c2c(nc3ccccc13)CCCC2`, the HACU improvement in assay [1] turned out to be 6%; in assay [2] it was 14%; in assay [3] it was 48%.

`CC(C)C(=O)Nc1c2c(nc3ccccc13)CCCC2`: the HACU improvement in assay [1] turned out to be 12%; in assay [2] it was 9%; in assay [3], 15%.

In the case of `CCC(=O)Nc1c2c(nc3ccccc13)CCCC2`, the HACU improvement in assay [1] was 3%; in assay [2], 1%; in assay [3] it was 3%.
